Experimental data from US8039514B2, “Sulfonamide compounds and use thereof” (Asahi Kasei Pharma Corporation, priority 2008, dated 2011).

Each compound was assayed against T1, human calcium-sensing receptor (CaSR) (Homo sapiens, UniProt P41180) (assay: intracellular Ca assay, CaSR antagonist activity in HEK293/hCaSR cells). Conditions: Fura2-AM, inhibition of response to calcium chloride ligand solution, read-out: IC50 values according to the intracellular Ca assay (CaSR antagonist activity).
T1 construct: expressed in transfected cells
T1 sequence (P41180 20-1078): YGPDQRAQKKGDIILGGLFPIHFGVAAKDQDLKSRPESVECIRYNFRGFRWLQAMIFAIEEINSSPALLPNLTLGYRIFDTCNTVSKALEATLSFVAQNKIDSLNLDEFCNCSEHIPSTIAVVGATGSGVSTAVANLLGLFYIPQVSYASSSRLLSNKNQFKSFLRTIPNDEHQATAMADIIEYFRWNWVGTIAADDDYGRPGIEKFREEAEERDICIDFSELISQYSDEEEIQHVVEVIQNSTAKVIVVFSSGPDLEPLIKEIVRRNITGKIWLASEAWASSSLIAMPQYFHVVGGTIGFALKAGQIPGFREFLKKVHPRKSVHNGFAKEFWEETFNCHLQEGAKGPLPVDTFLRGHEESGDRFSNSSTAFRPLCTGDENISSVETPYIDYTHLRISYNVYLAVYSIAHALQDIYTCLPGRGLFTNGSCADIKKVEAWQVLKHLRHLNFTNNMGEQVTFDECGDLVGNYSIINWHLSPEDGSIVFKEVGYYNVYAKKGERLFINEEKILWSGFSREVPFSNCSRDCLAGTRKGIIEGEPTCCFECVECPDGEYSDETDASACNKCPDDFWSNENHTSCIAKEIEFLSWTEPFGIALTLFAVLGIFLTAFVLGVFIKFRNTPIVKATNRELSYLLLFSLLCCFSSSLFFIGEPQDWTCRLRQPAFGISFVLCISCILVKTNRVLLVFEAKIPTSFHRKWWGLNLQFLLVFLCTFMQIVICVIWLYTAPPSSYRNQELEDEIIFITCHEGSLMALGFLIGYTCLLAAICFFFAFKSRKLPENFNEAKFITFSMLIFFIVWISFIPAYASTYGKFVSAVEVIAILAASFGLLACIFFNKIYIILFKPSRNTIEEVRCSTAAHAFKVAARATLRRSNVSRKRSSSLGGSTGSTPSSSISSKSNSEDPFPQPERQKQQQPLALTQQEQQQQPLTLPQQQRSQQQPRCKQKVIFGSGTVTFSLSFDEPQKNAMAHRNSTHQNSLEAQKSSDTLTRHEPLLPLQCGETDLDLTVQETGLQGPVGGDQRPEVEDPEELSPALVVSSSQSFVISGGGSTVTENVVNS
Format: cell-based
Method: HEK293 cells stably expressing human calcium-sensing receptor (CaSR) (termed HEK293/hCaSR cells) were used. HEK293/hCaSR cells were cultured in a culture medium [DMEM medium containing 0.5 mg/mL Geneticin, 50 Unit/mL penicillin, 50 μg/mL streptomycin and 10% fetal bovine serum (FBS), all manufactured by Invitrogen] to semiconfluent in an incubator at 37° C. under 5% carbon dioxide atmosphere.
Cultured cells were washed with phosphate buffered saline (PBS(−), manufactured by Dainippon Sumitomo Pharmaceutical Company) which had been prewarmed to 37° C., added with PBS(−) containing 10 mM ethylenediamine tetraacetic acid (EDTA), and then incubated in an incubator at 37° C. for 10 minutes. After adding the culture medium to separate the cells, cell suspension was transferred to a centrifuge tube. Cells were collected by centrifuge at 1,500 rpm for 3 minutes, and resuspended in Ca assay buffer [20 mM HEPES buffer (pH 7.4), 115 mM sodium chloride, 5.4 mM potassium chloride, 0.8 mM magnesium chloride, 0.8 mM calcium chloride, 13.8 mM D(+)-glucose (all manufactured by Wako Pure Chemicals) and 0.1% bovine serum albumin (manufactured by SIGMA)] containing 0.2% Pluronic F-127 (manufactured by Molecular Probes) and […] Fura2-AM (manufactured by DOJINDO LABORATORIES) to obtain a cell suspension of 5×10^6 cells/mL. After incubating at 37° C. for 30 minutes, the cells were washed twice with the Ca assay buffer and suspended in the same buffer to obtain a cell suspension of 1×10^6 cells/60 μL. 60 μL of the cell suspension was aliquoted to each well of a 96 well UV microplate (manufactured by Corning Co.) to give a cell plate.
The test compound was diluted with the Ca assay buffer to five times the final concentration and then 80 μL of the diluted compound was applied to each well of a 96 well round bottomed microplate (manufactured by Corning Co.) to give a sample plate. 80 μL of the Ca assay buffer containing 7.5 mM calcium chloride (i.e., ligand solution) was applied to each well of a 96 well round bottomed microplate to give a ligand plate. Then, thus prepared sample plate, ligand plate, and the cell plate were placed in Functional Drug Screening System (FDSS) 4000 (manufactured by Hamamatsu Photonics K.K.) which had been preswitched on and prewarmed to 37° C. Measurements were then carried out as follows. After incubating the cell plate for 180 seconds, fluorescence intensity was measured every two seconds (excitation wavelength; 340 nm and 380 nm, measurement wavelength; 500 nm). After the measurement for 40 seconds, 20 μL of the test compound solution from the sample plate was added to the cell plate, followed by continuous measurement for 160 seconds. Then, 20 μL of the ligand solution from the ligand plate was added to the cell plate, followed by continuous measurement for 100 seconds.
Amount of change in intracellular Ca concentration is indicated as a peak height of the ratio of the fluorescence intensity with excitation of 340 nm and 380 nm (i.e., fluorescence intensity with excitation at 340 nm/fluorescence intensity with excitation at 380 nm) that is obtained from the difference between the maximum ratio after adding the ligand solution and the ratio before adding the ligand solution. Further, when the peak height obtained from the Ca assay buffer containing no test compound has inhibition ratio of 0% while the peak height obtained from the Ca assay buffer containing no calcium chloride as a ligand solution has inhibition ratio of 100%, inhibition ratio for each test compound (i.e., CaSR antagonist activity) was calculated.

Row | SMILES | IC50
1 | CN(C[C@H](O)CNC(C)(C)Cc1ccc2ccccc2c1)S(=O)(=O)c1ccc(-c2ccc(C(=O)O)c(N)c2)cc1 [Exp. 3-34, (R)-3-amino-4′-(N-(2-hydroxy-3-(2-methyl-1-(naphthalen-2-yl)propan-2-ylamino)propyl)-N-methylsulfamoyl)biphenyl-4-carboxylic acid] | 1000 to 3000 nM
2 | CN(C[C@H](O)CNC(C)(C)CC1Cc2ccccc2C1)S(=O)(=O)c1cccc(-c2cccc(C=CC(=O)O)c2)c1 [Exp. 3-58, (R)-3-(3′-(N-(3-(1-(2,3-dihydro-1H-inden-2-yl)-2-methylpropan-2-ylamino)-2-hydroxypropyl)-N-methylsulfamoyl)biphenyl-3-yl)acrylic acid] | ≤ 300 nM
3 | CN(C[C@H](O)CNC(C)(C)Cc1ccc2ccccc2c1)S(=O)(=O)c1cccc(-c2cccc(C=CC(=O)O)c2)c1 [Exp. 3-16, (R)-3-(3′-(N-(2-hydroxy-3-(2-methyl-1-(naphthalen-2-yl)propan-2-ylamino)propyl)-N-methylsulfamoyl)biphenyl-3-yl)acrylic acid] | 1000 to 3000 nM
4 | CN(C[C@H](O)CNC(C)(C)CC1Cc2ccccc2C1)S(=O)(=O)c1cccc(-c2cc(F)cc(C(=O)O)c2)c1 [Exp. 3-60, (R)-3′-(N-(3-(1-(2,3-dihydro-1H-inden-2-yl)-2-methylpropan-2-ylamino)-2-hydroxypropyl)-N-methylsulfamoyl)-5-fluorobiphenyl-3-carboxylic acid] | ≤ 300 nM
5 | CN(C[C@H](O)CNC(C)(C)Cc1ccc(Cl)c(F)c1)S(=O)(=O)c1cccc(-c2ccc(CCC(=O)O)cc2)c1 [Exp. 3-78, (R)-3-(3′-(N-(3-(1-(4-chloro-3-fluorophenyl)-2-methylpropan-2-ylamino)-2-hydroxypropyl)-N-methylsulfamoyl)biphenyl-4-yl)propionic acid] | 1000 to 3000 nM
6 | CN(C[C@H](O)CNC(C)(C)CC1Cc2ccccc2C1)S(=O)(=O)c1cccc(-c2ccc(C(=O)O)c(F)c2)c1 [Exp. 3-53, (R)-3′-(N-(3-(1-(2,3-dihydro-1H-inden-2-yl)-2-methylpropan-2-ylamino)-2-hydroxypropyl)-N-methylsulfamoyl)-3-fluorobiphenyl-4-carboxylic acid] | ≤ 300 nM
7 | Cc1cc(S(=O)(=O)N(C)C[C@H](O)CNC(C)(C)CC2Cc3ccccc3C2)ccc1-c1cccc(CCC(=O)O)c1 [Exp. 3-178, (R)-3-(4′-(N-(3-(1-(2,3-dihydro-1H-inden-2-yl)-2-methylpropan-2-ylamino)-2-hydroxypropyl)-N-methylsulfamoyl) 2′-methylbiphenyl-3-yl)propionic acid] | ≤ 300 nM
8 | CN(C[C@H](O)CNC(C)(C)CC1Cc2ccccc2C1)S(=O)(=O)c1c(Cl)cc(-c2ccc(CC(=O)O)cc2)cc1Cl [Exp. 3-140, (R)-2-(3′,5′-dichloro-4′-(N-(3-(1-(2,3-dihydro-1H-inden-2-yl)-2-methylpropan-2-ylamino)-2-hydroxypropyl)-N-methylsulfamoyl)biphenyl-4-yl)acetic acid] | ≤ 300 nM
9 | CN(C[C@H](O)CNC(C)(C)Cc1ccc2ccccc2c1)S(=O)(=O)c1cccc(-c2ccc(C(=O)O)cc2N)c1 [Exp. 3-19, (R)-2-amino-3′-(N-(2-hydroxy-3-(2-methyl-1-(naphthalen-2-yl)propan-2-ylamino)propyl)-N-methylsulfamoyl)biphenyl-4-carboxylic acid] | 300 to 1000 nM
10 | CCc1cc(-c2ccc(CC(=O)O)cc2)ccc1S(=O)(=O)N(C)C[C@H](O)CNC(C)(C)CC1Cc2ccccc2C1 [Exp. 3-147, (R)-2-(4′-(N-(3-(1-(2,3-dihydro-1H-inden-2-yl)-2-methylpropan-2-ylamino)-2-hydroxypropyl)-N-methylsulfamoyl)-3′-ethylbiphenyl-4-yl)acetic acid] | ≤ 300 nM
11 | CN(C[C@H](O)CNC(C)(C)CC1Cc2ccccc2C1)S(=O)(=O)c1cc(-c2ccc(CC(=O)O)cc2)cc(C(F)(F)F)c1 [Exp. 3-133, (R)-2-(3′-(N-(3-(1-(2,3-dihydro-1H-inden-2-yl)-2-methylpropan-2-ylamino)-2-hydroxypropyl)-N-methylsulfamoyl)-5′-(trifluoromethyl)biphenyl-4-yl)acetic acid] | ≤ 300 nM
12 | CN(C[C@H](O)CNC(C)(C)Cc1ccc2ccccc2c1)S(=O)(=O)Cc1ccccc1-c1cccc(C=CC(=O)O)c1 [Exp. 3-84, (R)-3-(2′-((N-(2-hydroxy-3-(2-methyl-1-(naphthalen-2-yl)propan-2-ylamino)propyl)-N-methylsulfamoyl)methyl)biphenyl-3-yl)acrylic acid] | 1000 to 3000 nM

Now from value to compound:

Row | IC50 | SMILES
13 | ≤ 300 nM | CN(C[C@H](O)CNC(C)(C)CC1Cc2ccccc2C1)S(=O)(=O)c1ccc(CCCCCC(=O)O)c(C(F)(F)F)c1 [Exp. 10-14, (R)-6-(4-(N-(3-(1-(2,3-dihydro-1H-inden-2-yl)-2-methylpropan-2-ylamino)-2-hydroxypropyl)-N-methylsulfamoyl)-2-(trifluoromethyl)phenyl)hexanoic acid]
14 | ≤ 300 nM | CN(C[C@H](O)CNC(C)(C)CC1Cc2ccccc2C1)S(=O)(=O)c1ccc(-c2cc(CCC(=O)O)ccc2F)c(F)c1 [Exp. 5-23, (R)-3-(4′-(N-(3-(1-(2,3-dihydro-1H-inden-2-yl)-2-methylpropan-2-ylamino)-2-hydroxypropyl)-N-methylsulfamoyl)-2′,6-difluorobiphenyl-3-yl)propionic acid]
15 | ≤ 300 nM | CCc1cc(-c2ccc(CCC(=O)O)cc2Cl)ccc1S(=O)(=O)N(C)C[C@H](O)CNC(C)(C)CC1Cc2ccccc2C1 [Exp. 5-16, (R)-3-(2-chloro-4′-(N-(3-(1-(2,3-dihydro-1H-inden-2-yl)-2-methylpropan-2-ylamino)-2-hydroxypropyl)-N-methylsulfamoyl)-3′-ethylbiphenyl-4-yl)propionic acid]
16 | ≤ 300 nM | CN(C[C@H](O)CNC(C)(C)CCCc1ccccc1)S(=O)(=O)c1cc(NCC(=O)O)cc(C(F)(F)F)c1 [Exp. 9-180, (R)-2-(3-(N-(2-hydroxy-3-(2-methyl-5-phenylpentan-2-ylamino)propyl)-N-methylsulfamoyl)-5-(trifluoromethyl)phenylamino)acetic acid]
17 | ≤ 300 nM | CN(C[C@H](O)CNC(C)(C)CCCc1ccccc1)S(=O)(=O)c1cc(F)cc(CCC(=O)O)c1Cl [Exp. 9-173, (R)-3-(2-chloro-5-fluoro-3-(N-(2-hydroxy-3-(2-methyl-5-phenylpentan-2-ylamino)propyl)-N-methylsulfamoyl)phenyl)propionic acid]
